Patent US5576429A, “5-substituted pyrimidine nucleosides and nucleotides” (Medivir AB, priority 1988, dated 1996)
Where two headings read alike, the source gives them in different places.

What was measured:
[1] = test system: HIV (HTLV-IIIB); test: Test I Effect of compounds on HIV in H9 cells (frequency of HIV antigen containing cells); format: cell-based
Description: Test I Effect of compounds of the formula I on HIV in H9 cells
Materials and methods: HIV infection of H9 cells
H9 cells, 10^5 cells per well on a 24 well plate, suspended in 2 ml RPMI-medium containing 10% fetal calf serum, 100 μg/ml pencillin, 10 μg/ml streptomycin sulfate and 2 μg/ml polybrene are exposed to HIV (HTLV-IIIB) and different concentrations of the test compounds. The plates are incubated at 37° C. in 5% CO2 for 6-7 days. The contents in each well is then homogenized with a pipette and transferred to a centrifuge tube. After centrifugation for 10 min at 1500 rpm the supernatant is removed and the cell pellet is analyzed by fixing in methanol on glass plates. Human HIV positive serum diluted 1:80 or 1:160 is added and incubated for 30 min at 37° C. The plate is then washed with phosphate-buffered saline (PBS) containing Ca^2+ and Mg^2 +. Sheep antihuman conjugate (FITC) is added and after a new incubation the plate is again washed with PBS. Contrast staining is done with Evans blue and after drying the frequency of HIV antigen containing cells is determined in a microscope.

[2] = Test II Cellular toxicity on F5000 cells (cell number after 48 h); format: cell-based, human; settings: human, read-out: % inhibition of cell multiplication, F 5000
Description: (§1) Test II Cellular toxicity
(§2) F5000 cells, which are human embryo cells, 1×10^5 cells per plate, are incubated in Eagle's minimal essential medium, supplemented with Earle's salts, non-essential amino acids, 10% fetal calf serum, 10 mM hepes, 70 mg/l penicillin and 100 mg/l streptomycin, in absence or presence of test compounds. The number of cells per plate is determined after 48 h.

[3] = Test II Cellular toxicity on H9 cells (cell number after 48 h); format: cell-based; settings: human, read-out: % inhibition of cell multiplication, H9
[4] = target: T1, Human immuno deficiency virus reverse transcriptase (Human immunodeficiency virus type 1 group M subtype B, UniProt P04585); test: Test III Inhibition of HIV reverse transcriptase by triphosphates; format: biochemical; settings: template (rA)n(dT)12-18, substrate dTTP; read-out: Concentration for 50% inhibition (IC50) of HIV RT
T1 construct: Human immuno deficiency virus reverse transcriptase; made in house; host or cells: Escherichia coli
From the text: (§3) Test III Inhibition of reverse transcriptases and DNA polymerases by triphosphates of compounds of the invention
(§4) The 5'-triphosphates were synthesized essentially as described (Yoshikawa, M, Kato T, Takenishi T, Bull. Chem. Soc. (Japan), 42,3505-3508, 1969; Ludwig, J., Acta Biochim. Biophys. Acad. Sci. Hung. 16, 131-133, 1981; Ruth, J. L., Cheng, Y. C., Mol. Pharmacol. 20, 415 1981.) The HIV-RT was obtained as described by Hansen et al (Hansen J, Schulze T and Moelling K, J. Biol. Chem. 262, 12393-12396, 1987) from culture of Escherichia coli expressing the cloned HIV-pol gene. The HBV-DNAP was prepared from virus obtained from human serum, essentially as described by Nordenfelt et al (1987) [Nordenfelt E, Lofgren B, Chattopadhyaya J., Oberg B, J. Med. Virol. 22, 231-236, 1987]. The HSV-2 DNAP and cellular DNAPα preparation and reaction conditions have been described by Larsson et al [Larsson A, Sundqvist A, Parnerud A-M, 1986, Mol. Pharmacol. 29, 614-621]. […] The hepatitis B virus enzyme activity was determined with a virus preparation solubilized by non-idet P40, and endogenous nucleic acid as template, as described by Nordenfelt et al (vide supra)

[5] = target: T2, DNA polymerase alpha (Homo sapiens, UniProt P09884); test: Test III Inhibition of cellular DNA polymerase alpha by triphosphates; format: biochemical; settings: cellular DNAPα; read-out: Concentration for 50% inhibition (IC50) of DNAPα
T2 sequence (P09884 1-1462): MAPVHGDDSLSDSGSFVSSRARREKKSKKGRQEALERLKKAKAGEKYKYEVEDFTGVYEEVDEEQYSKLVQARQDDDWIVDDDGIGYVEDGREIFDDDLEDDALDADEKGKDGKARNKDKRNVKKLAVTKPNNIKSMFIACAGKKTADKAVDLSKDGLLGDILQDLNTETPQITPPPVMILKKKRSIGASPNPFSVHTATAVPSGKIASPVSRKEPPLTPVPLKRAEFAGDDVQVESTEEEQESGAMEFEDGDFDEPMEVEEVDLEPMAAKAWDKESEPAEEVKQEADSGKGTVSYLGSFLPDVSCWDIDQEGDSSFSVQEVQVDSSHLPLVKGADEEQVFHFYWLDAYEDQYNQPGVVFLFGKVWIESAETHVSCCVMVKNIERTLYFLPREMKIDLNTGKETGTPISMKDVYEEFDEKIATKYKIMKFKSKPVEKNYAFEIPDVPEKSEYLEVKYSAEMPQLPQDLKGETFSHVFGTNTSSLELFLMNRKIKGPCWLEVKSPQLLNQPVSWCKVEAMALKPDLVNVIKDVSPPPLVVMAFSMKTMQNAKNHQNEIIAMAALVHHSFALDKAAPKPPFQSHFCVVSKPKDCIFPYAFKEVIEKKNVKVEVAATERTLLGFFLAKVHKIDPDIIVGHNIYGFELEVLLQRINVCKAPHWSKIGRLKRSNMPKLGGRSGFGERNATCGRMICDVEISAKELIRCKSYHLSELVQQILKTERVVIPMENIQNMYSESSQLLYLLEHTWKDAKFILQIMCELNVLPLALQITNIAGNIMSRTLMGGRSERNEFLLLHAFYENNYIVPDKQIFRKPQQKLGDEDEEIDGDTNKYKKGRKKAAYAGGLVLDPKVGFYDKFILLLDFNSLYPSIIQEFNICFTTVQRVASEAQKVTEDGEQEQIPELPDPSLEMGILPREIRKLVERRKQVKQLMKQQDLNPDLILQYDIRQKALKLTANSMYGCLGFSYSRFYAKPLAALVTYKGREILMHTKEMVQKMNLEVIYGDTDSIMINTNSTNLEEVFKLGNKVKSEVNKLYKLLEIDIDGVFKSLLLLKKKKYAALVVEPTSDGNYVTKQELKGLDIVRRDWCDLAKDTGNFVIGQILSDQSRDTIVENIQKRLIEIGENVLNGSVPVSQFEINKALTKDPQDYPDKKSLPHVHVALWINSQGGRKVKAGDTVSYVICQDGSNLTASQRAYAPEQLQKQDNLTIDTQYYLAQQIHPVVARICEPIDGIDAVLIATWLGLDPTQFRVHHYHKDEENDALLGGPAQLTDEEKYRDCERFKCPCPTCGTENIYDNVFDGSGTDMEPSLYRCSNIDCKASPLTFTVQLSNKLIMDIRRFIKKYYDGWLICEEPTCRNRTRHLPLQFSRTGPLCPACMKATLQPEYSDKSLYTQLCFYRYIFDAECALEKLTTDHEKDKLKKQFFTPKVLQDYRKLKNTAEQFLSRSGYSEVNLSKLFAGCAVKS
From the text: as §3, §4

[6] = target: T3, Hepatit B virus DNA polymerase (Hepatitis B virus genotype D subtype ayw, UniProt P03156); test: Test III Inhibition of HBV DNA polymerase by triphosphates; format: biochemical; settings: virus preparation from human serum, endogenous nucleic acid as template; read-out: Concentration for 50% inhibition (IC50) of HBV DNAP
T3 construct: The HBV-DNAP was prepared from virus obtained from human serum; from tissue; host or cells: hepatitis B virus particles from human serum, solubilized with Nonidet P40
From the text: as §3, §4

[7] = target: Herpes simplex virus type 2 DNA polymerase (Human herpesvirus 2, UniProt P89453); test: Test III Inhibition of HSV-2 DNA polymerase by triphosphates; format: biochemical; settings: read-out: Concentration for 50% inhibition (IC50) of HSV-2 DNAP
From the text: as §3, §4

[8] = test system: F5000 cells; test: Test II Cellular toxicity on F5000 cells (cell number after 48 h); format: cell-based, human; settings: 100 μM
Description: as §1, §2

[9] = test system: H9 cells; test: Test II Cellular toxicity on H9 cells (cell number after 48 h); format: cell-based; settings: 200 μM
[10] = Human immunodeficiency virus 1, IIIB, H9, read-out: Concentration for 50% inhibition (IC50) of human immuno deficiency virus multiplication in cell culture
[11] = Human immunodeficiency virus 1, H9 cells, HIV (HTLV-IIIB), 6-7 days, read-out: Concentration for 50% inhibition (IC50) of human immuno deficiency virus multiplication in cell culture

T3 sequence (P03156 whole entry): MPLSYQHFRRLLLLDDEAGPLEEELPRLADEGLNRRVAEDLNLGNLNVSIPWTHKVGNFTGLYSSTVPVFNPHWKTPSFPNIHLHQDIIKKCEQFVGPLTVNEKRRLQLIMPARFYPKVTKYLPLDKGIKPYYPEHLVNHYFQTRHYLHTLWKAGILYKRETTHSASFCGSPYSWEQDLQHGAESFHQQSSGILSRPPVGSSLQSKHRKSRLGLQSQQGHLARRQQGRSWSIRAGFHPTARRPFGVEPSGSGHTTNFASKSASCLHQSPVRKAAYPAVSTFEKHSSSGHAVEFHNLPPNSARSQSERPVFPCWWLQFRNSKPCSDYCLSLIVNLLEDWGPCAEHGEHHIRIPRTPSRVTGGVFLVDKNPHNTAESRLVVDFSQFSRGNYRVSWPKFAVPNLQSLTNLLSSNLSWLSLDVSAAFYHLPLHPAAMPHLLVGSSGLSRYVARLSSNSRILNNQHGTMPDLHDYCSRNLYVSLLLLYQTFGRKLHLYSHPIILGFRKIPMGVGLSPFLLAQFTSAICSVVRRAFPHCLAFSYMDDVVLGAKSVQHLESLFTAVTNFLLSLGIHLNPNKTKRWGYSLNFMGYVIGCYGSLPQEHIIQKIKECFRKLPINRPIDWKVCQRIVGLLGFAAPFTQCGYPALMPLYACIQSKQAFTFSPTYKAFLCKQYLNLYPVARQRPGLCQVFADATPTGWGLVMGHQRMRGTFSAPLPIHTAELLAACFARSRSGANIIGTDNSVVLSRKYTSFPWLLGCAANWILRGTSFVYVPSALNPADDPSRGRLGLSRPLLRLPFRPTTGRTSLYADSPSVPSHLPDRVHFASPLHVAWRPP
Chain of Herpes simplex virus type 2 DNA polymerase (P89453 whole entry): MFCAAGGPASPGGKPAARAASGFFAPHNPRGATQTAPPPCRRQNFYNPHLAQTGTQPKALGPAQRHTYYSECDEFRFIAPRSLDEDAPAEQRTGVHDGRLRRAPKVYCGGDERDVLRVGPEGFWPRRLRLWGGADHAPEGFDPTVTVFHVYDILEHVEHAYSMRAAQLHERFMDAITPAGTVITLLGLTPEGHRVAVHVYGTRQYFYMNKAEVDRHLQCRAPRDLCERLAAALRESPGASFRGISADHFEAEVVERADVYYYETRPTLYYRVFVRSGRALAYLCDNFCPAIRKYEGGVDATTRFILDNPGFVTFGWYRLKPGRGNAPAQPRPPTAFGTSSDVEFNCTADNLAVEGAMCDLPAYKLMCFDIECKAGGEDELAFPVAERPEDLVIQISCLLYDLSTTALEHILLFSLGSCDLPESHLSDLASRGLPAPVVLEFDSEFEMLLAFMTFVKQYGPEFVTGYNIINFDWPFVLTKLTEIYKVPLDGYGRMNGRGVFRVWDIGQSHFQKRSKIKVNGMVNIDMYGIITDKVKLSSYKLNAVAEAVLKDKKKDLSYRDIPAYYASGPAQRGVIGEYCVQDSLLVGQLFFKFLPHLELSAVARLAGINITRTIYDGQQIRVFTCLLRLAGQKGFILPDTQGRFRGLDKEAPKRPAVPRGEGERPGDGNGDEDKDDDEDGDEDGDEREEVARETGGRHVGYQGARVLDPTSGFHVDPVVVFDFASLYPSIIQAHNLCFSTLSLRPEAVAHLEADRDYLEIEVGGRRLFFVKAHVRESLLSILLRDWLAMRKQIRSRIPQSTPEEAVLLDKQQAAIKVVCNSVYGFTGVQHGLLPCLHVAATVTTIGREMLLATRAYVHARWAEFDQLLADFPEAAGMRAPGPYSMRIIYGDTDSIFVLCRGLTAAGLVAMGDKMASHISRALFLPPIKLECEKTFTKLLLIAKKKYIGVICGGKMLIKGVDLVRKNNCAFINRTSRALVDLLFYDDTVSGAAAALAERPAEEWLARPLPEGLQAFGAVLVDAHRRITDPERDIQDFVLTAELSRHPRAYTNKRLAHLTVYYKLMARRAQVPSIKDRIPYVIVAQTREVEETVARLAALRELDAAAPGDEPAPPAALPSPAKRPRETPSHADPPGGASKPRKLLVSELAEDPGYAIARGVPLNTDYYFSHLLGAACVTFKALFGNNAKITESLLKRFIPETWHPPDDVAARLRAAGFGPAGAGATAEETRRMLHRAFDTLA

O=c1[nH]c(=O)n([C@@H]2C[C@H](O)[C@@H](CO)O2)cc1-c1ccc[se]1 [VSA 188] showed an IC50 [1, 10] of 2000 to 20000 nM, an inhibition at 48 h, 200 µM [2] of 15% and an inhibition at 48 h, 200 µM [3] of 40%.

In the case of O=c1[nH]c(=O)n([C@@H]2C[C@H](O)[C@@H](CO)O2)cc1-c1cc[se]c1 [VSA 996], the IC50 [1, 10] is reported as 3000 to 100000 nM, the inhibition at 48 h, 200 µM [2] is reported as 30% and the inhibition at 48 h, 200 µM [3] is reported as 65%.

O=c1[nH]c(=O)n([C@@H]2C[C@H](O)[C@@H](CO)O2)cc1-c1cccs1 [VSA 134, 1-(2-Deoxy-alpha-D-ribofuranosyl)-5-(2-thienyl)uracil] gave an IC50 [1, 11] of 50 to 10000 nM, an inhibition at 48 h, 100 µM ([2]; 100 μM) of 0 to 35% and an inhibition at 48 h, 250 µM ([3]; 250 μM) of 35%.

With O=c1[nH]c(=O)n([C@H]2C[C@H](O)[C@@H](CO)O2)cc1-c1cc[se]c1 [VSA 992] the inhibition at 48 h, 200 µM [2] was 0% and the inhibition at 48 h, 200 µM [3] was 40%.

For O=c1[nH]c(=O)n([C@H]2C[C@H](O)[C@@H](CO)O2)cc1-c1ccco1 [VSB 008, 1-(2-Deoxy-beta-D-ribofuranosyl)-5-(2-furyl)uracil], the inhibition at 48 h, 200 µM [2] was 0%.

Compound O=c1[nH]c(=O)n([C@@H]2C[C@H](O)[C@@H](CO)O2)cc1-c1ccco1 [VSB 007, 1-(2-Deoxy-alpha-D-ribofuranosyl)-5-(2-furyl)uracil] has an IC50 [1, 11] of less than 10000 nM.

O=c1[nH]c(=O)n([C@H]2C[C@H](O)[C@@H](COP(=O)(O)OP(=O)(O)OP(=O)(O)O)O2)cc1-c1cccs1 [1-(2-Deoxy-beta-D-ribofuranosyl)-5-(2-thienyl)uracil-5'-triphosphate] showed an IC50 [4] of 15 nM, an IC50 [5] of 1600 nM and an IC50 [6] of 110 nM. The IC50 [7] was 60 nM.

In the case of O=c1[nH]c(=O)n([C@H]2C[C@H](O)[C@@H](CO)O2)cc1-c1cccs1 [VSA 189], the “% inhibition of cell multiplication, F 5000” value [8] is reported as 10% and the “% inhibition of cell multiplication, H9” value [9] is reported as 35%.

Compound O=c1[nH]c(=O)n([C@@H]2C[C@H](O)[C@@H](COP(=O)(O)OP(=O)(O)OP(=O)(O)O)O2)cc1-c1cccs1 [1-(2-Deoxy-alpha-D-ribofuranasyl)-5-(2-thienyl)uracil-5'-triphosphate] has an IC50 [4] of 2000 nM, an IC50 [5] of 80000 nM and an IC50 [6] of 18000 nM. It also gave an IC50 [7] of 11000 nM.
